Patent US20220289756A1, “COMPOUNDS AND COMPOSITIONS AS INHIBITORS OF PROTEIN KINASES” (priority 2021, published 2022)

Columns and labels:
Abl(T315I) = target: T1, Abl(T315I) (Homo sapiens, UniProt P00519, T315I); test: Abl(T315I) kinase activity assay, Kinase-Glo Plus luminescence (BPS Biosciences); format: biochemical; conditions: 10 μM ATP
T1 construct: purchased BPS Biosciences (named as the lab that ran the assay)
Description: (§1) Assay was conducted by BPS Biosciences, 6405 Mira Mesa Blvd. Suite 100. San Diego, Calif. 92121. United States
(§2) • The assay was performed using Kinase-Glo Plus luminescence kinase assay kit (Promega). It measures kinase activity by quantitating the amount of ATP remaining in solution following a kinase reaction. The luminescent signal from the assay is correlated with the amount of ATP present and is inversely correlated with the amount of kinase activity. • The testing compounds were diluted in 10% DMSO and 5 μl of the dilution was added to a 50 μl reaction so that the final concentration of DMSO is 1% in all of reactions. All of the enzymatic reactions were conducted at 30° C. for 45 minutes. The 50 μl reaction mixture contains 40 mM Tris, pH 7.4, 10 mM MgCl2, 0.1 mg/ml BSA, 1 mM DTT, 10 μM ATP, Kinase substrate and the enzyme. After the enzymatic reaction, 50 μl of Kinase-Glo Plus Luminescence kinase assay solution (Promega) was added to each reaction and incubated on the plate for 15 minutes, at room temperature. Luminescence signal was measured using a BioTek Synergy 2 microplate reader.
(§3) • Kinase activity assays were performed in duplicate at each concentration. The luminescence data were analyzed using the computer software, Graphpad Prism. The difference between luminescence intensities in the absence of Kinase (Lut) and in the presence of Kinase (Luc) was defined as 100% activity (Lut−Luc). Using luminescence signal (Lu) in the presence of the compound, % activity was calculated as: • % activity={(Lut−Lu)/(Lut−Luc)}×100%, where Lu=the luminescence intensity in the presence of the compound. The values of % activity versus a series of compound concentrations were then plotted using non-linear regression analysis of Sigmoidal dose-response curve generated with the equation Y=B+(T−B)/1+10 ((LogEC50−X)×Hill Slope), where Y=percent activity, B=minimum percent activity, T=maximum percent activity, X=logarithm of compound and Hill Slope=slope factor or Hill coefficient. The IC 50 value was determined by the concentration causing a half-maximal percent activity.

ABL (WT) = target: T2, ABL (WT) (Homo sapiens, UniProt P00519); test: Abl kinase activity assay, Kinase-Glo Plus luminescence (BPS Biosciences); format: biochemical; conditions: 10 μM ATP
T2 construct: purchased BPS Biosciences (named as the lab that ran the assay)
Description: as §1, §2, §3

[1] = 10 nM compound, read-out: % Inhibition of Compound 55 @10 nM
[2] = 100 nM compound, read-out: % Inhibition of Compound 55 @100 nM

inhibition at 0.01 µM (Abl(T315I); [1]): > 10% | inhibition at 0.1 µM (Abl(T315I); [2]): > 25% | IC50 (Abl(T315I); read-out: IC-50 of Compound 55): < 500 nM | inhibition at 0.01 µM (ABL (WT); [1]): > 10% | inhibition at 0.1 µM (ABL (WT); [2]): > 25% | IC50 (ABL (WT); read-out: IC-50 of Compound 55): < 500 nM
SMILES: Cc1ccc(C(=O)Nc2ccc(CN3CCN(C)CC3)c(C(F)(F)F)c2)cc1C12CC(c3cnc4cccnn34)(C1)C2 [Compound 55, 3-(3-(imidazo[1,2-b]pyridazin-3-yl)bicyclo[1.1.1]pentan-1-yl)-4-methyl-N-(4-((4-methylpiperazin-1-yl)methyl)-3-(trifluoromethyl)phenyl)benzamide]
